Drawing on PubChem BioAssay AID651586 (Broad Institute, 2012), this text covers IC50 for 1 compound.

Structures are written as SMILES. pIC50: −log10 of the molar value. “And” between values parts separate entries of the source, which are not always exact repeats. Equal values may be shown once.

The assay deals with SK-MEL-5 viability, CellTiter-Glo ATP luminescence, 24 h. The assay can be described thus: growth inhibition of SK-MEL-5 melanoma cells – cell-based, CellTiter-Glo luminescence, dry powder, set 8, orthogonal assay for MITF inhibitor project, dose response (AID 651586). For orientation: Cellular ATP, detected with luciferase, serves as a proxy for viable cell number.

Consider `O=C1C=C(Nc2ccccc2)C(=O)c2ccccc21`, for which the pIC50 is 5.59 and 5.21.

A word on the pIC50: it is −log10 of the IC50, conventionally taken in molar units.
